Data published in patent publication US20250084087A1, “BICYCLIC HETEROCYCLES AS MRGPRX2 ANTAGONISTS” (Incyte Corporation, priority 2023, published 2025).

How the values were obtained:
MRGPRX2 [1] = biological target: T1, MRGPRX2 (Homo sapiens, UniProt Q96LB1); assay: MRGPRX2 β-Arrestin recruitment assay (PathHunter); format: cell-based; parameters: host or cells: CHO-K1 (PathHunter); conditions: PathHunter CHO-K1 MRGPRX2 β-Arrestin cell line; agonist Cortistatin 14 0.25 μM
T1 sequence (Q96LB1 1-330): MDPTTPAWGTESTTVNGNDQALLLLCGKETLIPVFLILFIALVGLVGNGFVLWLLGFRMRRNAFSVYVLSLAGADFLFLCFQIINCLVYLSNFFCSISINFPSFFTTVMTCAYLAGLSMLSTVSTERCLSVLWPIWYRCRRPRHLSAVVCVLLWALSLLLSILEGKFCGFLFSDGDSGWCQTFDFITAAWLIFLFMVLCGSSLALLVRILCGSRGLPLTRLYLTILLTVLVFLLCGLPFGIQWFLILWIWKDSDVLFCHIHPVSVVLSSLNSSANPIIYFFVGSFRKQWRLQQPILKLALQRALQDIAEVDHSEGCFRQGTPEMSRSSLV
Source text: Example C: MRGPRX2 P-Arrestin Assay
This assay measures compound inhibition of P-Arrestin recruitment, which is part of the G protein-independent pathway that results from the ligand-activated GPCR phosphorylation by specific GPCR kinases. The PathHunter CHO-K1 MRPGRX2 B-Arrestin Cell line stably expressing ProLink tagged MRGPRX2 and Enzyme Acceptor Tagged B-Arrestin was purchased from Eurofins DiscoverX, (Fremont, CA).
The cells were maintained in culture medium from the Europhins DiscoverX Cell Culture Kit-107 which includes FBS, hygromycin B and G418. For the assay, the cells were harvested and were resuspended with Cell Plating Reagent 2 (Eurofins DiscoverX). Cells were added 10000 cells in 25 μL/well to a 384-well black cell culture plate (Greiner VWR, Radnor, PA) which contained 125 nL/well of compound at a selected serially diluted concentration range or DMSO. The plate was incubated at 37° C. with 5% CO2 for 1 h. 2 μL/well of agonist Cortistatin 14 was diluted in Protein Dilution Buffer, (Eurofins DiscoverX) for a final concentration of 0.25 μM, was added and the plate was incubated at 37° C. with 5% CO2 for 90 min. 14 μL/well of Detection Reagent Mix (PathHunter Detection Kit, Eurofins DiscoverX) was added to the plates and further incubated for 1 h in the dark. Plates were read on the PHERAstar microplate reader (BMG Labtech Cary, NC) measuring luminescence 0.1 to 1 second per well. Data was normalized using DMSO only wells and wells with high concentration of reference antagonist as controls. Compound IC50 curves were globally fitted with 3- or 4-parameter Hill equation in a Genedata Screener (Genedata Basel, Switzerland).

MRGPRX2 [2] = biological target: T1, MRGPRX2; assay: MRGPRX2 IP1 HTRF assay; format: cell-based; parameters: host or cells: CHO-K1; conditions: CHO-K1 cells stably expressing human MRGPRX2; IP1 accumulation; agonist Cortistatin 14 1 μM
Source text: Example B: MRGPRX2 IP1 HTRF Assay
This assay measures compound inhibition of myo-Inositol 1 phosphate (IP1) accumulation in CHO-K1 cells. Chinese hamster ovary (CHO-K1) cells stably expressing human MRGPRX2 were purchased from GenScript (Piscataway, NJ).
For the HTRF IP1 determination, an IP-One GqKit (Perkin Elmer Cisbio, Waltham, MA), which includes all reagents and buffers in this protocol, was used. The cells were maintained in culture medium (Ham's F-12K) containing 10% (v/v) FBS, and 200 μg/mL Zeocin. For the assay, the cells were harvested and resuspended in culture medium with 2% FBS and without Zeocin, then were passed through a 40 μm filter. Cells were added at 20000 cells in a 5 μL/well to a 384-well white small volume cell culture plate (Greiner VWR, Radnor, PA) which contained 50 nL/well of test compound serially diluted at a selected concentration range in DMSO. 5 μL/well of prepared 2× Stimulation Buffer2 was then added to plates and was incubated at 37° C. with 5% CO2 for 1 h. 5 μL/well of agonist Cortistatin 14 (Bio-TechneR&D Systems, Minneapolis, MN) in 1× Stimulation Buffer2, for a 1 μM final concentration, was then added to plates and incubated at 37° C. with 5% CO2 for 1 h. 6 μL/well of 1:20 diluted Detection Reagent Mix (d2 and Cryptate) was added to the plates and incubated for 1 h in the dark. Plates were read on the PHERAstar microplate reader (BMG Labtech Cary, NC) to determine the HTRF ratio of the acceptor and donor emission signals. The IP1 concentrations were calculated from a standard curve following the IP-One GQ kit instructions. Wells with DMSO only and wells with high concentration of reference antagonist were used as controls for normalization. Compound IC50 curves were globally fitted with 3- or 4-parameter Hill equation in a Genedata Screener (Genedata Basel, Switzerland).

## O=C(N[C@@H]1CC[C@@H](O)C1)N1CC(CNc2cc(C(F)(F)F)nc3cc(C(F)(F)F)nn23)(c2ccc(F)cc2)C1 [Example 53, 3-(((2,5-Bis(trifluoromethyl)pyrazolo[1,5-a]pyrimidin-7-yl)amino)methyl)-3-(4-fluorophenyl)-N-((1R,3R)-3-hydroxycyclopentyl)azetidine-1-carboxamide]
MRGPRX2 [1]
  IC50: 0.1 to 100 nM
MRGPRX2 [2]
  IC50: 0.1 to 100 nM

## O=C(N[C@H]1CC[C@](O)(C(F)(F)F)CC1)N1CC(CNc2cc(C(F)(F)F)nc3cc(C(F)(F)F)nn23)(c2ccc(F)cc2)C1 [Example 54, 3-(((2,5-Bis(trifluoromethyl)pyrazolo[1,5-a]pyrimidin-7-yl)amino)methyl)-3-(4-fluorophenyl)-N-((1s,4s)-4-hydroxy-4-(trifluoromethyl)cyclohexyl)azetidine-1-carboxamide]
MRGPRX2 [1]
  IC50: 0.1 to 100 nM
MRGPRX2 [2]
  IC50: 0.1 to 100 nM

## CC(C)(O)[C@H]1CC[C@H](NC(=O)N2CC(CNc3cc(C(F)(F)F)nc4cc(C(F)(F)F)nn34)(c3ccc(F)cc3)C2)CC1 [Example 55, 3-(((2,5-Bis(trifluoromethyl)pyrazolo[1,5-a]pyrimidin-7-yl)amino)methyl)-3-(4-fluorophenyl)-N-((1r,4r)-4-(2-hydroxypropan-2-yl)cyclohexyl)azetidine-1-carboxamide]
MRGPRX2 [1]
  IC50: 0.1 to 100 nM
MRGPRX2 [2]
  IC50: 0.1 to 100 nM

## O=C(N[C@@H]1CC[C@@H](O)C1)N1CCC(CNc2cc(C(F)(F)F)nc3cc(C(F)(F)F)nn23)(c2ccc(F)cc2)CC1 [Example 56, 4-(((2,5-Bis(trifluoromethyl)pyrazolo[1,5-a]pyrimidin-7-yl)amino)methyl)-4-(4-fluorophenyl)-N-((1R,3R)-3-hydroxycyclopentyl)piperidine-1-carboxamide]
MRGPRX2 [1]
  IC50: 0.1 to 100 nM
MRGPRX2 [2]
  IC50: 0.1 to 100 nM

## N#CC12CC(NC(=O)N3CC(CNc4cc(C(F)(F)F)nc5cc(C(F)(F)F)nn45)(c4cc(F)cc(F)c4)C3)(C1)C2 [Example 65, 3-(((2,5-Bis(trifluoromethyl)pyrazolo[1,5-a]pyrimidin-7-yl)amino)methyl)-N-(3-cyanobicyclo[1.1.1]pentan-1-yl-3-3,5-difluorophenyl)azetidine-1-carboxamide]
MRGPRX2 [1]
  IC50: 0.1 to 100 nM
MRGPRX2 [2]
  IC50: 0.1 to 100 nM

## O=C(N[C@H]1CC[C@H](O)CC1)N1CC(CNc2cc(C3CC3)nc3cc(C(F)(F)F)nn23)(c2ccc(F)cc2)C1 [Example 69, 3-(((5-Cyclopropyl-2-(trifluoromethyl)pyrazolo[1,5-a]pyrimidin-7-yl)amino)methyl)-3-(4-fluorophenyl)-N-((1r,4r)-4-hydroxycyclohexyl)azetidine-1-carboxamide]
MRGPRX2 [1]
  IC50: 0.1 to 100 nM
MRGPRX2 [2]
  IC50: 0.1 to 100 nM

## CCc1cc(NCC2(c3ccc(F)cc3)CN(C(=O)NCC(F)(F)F)C2)n2nc(C(F)(F)F)cc2n1 [Example 71, 3-(((5-Ethyl-2-(trifluoromethyl)pyrazolo[1,5-a]pyrimidin-7-yl)amino)methyl)-3-(4-fluorophenyl)-N-(2,2,2-trifluoroethyl)azetidine-1-carboxamide]
MRGPRX2 [1]
  IC50: 0.1 to 100 nM
MRGPRX2 [2]
  IC50: 0.1 to 100 nM

## CC(C)(O)CNC1CC(CNc2cc(C(F)(F)F)nc3cc(C(F)(F)F)nn23)(c2ccc(F)cc2)C1 (stereo not shown) [Example 73, 1-((3-(((2,5-Bis(trifluoromethyl)pyrazolo[1,5-a]pyrimidin-7-yl)amino)methyl)-3-(4-fluorophenyl)cyclobutyl)amino)-2-methylpropan-2-ol]
MRGPRX2 [1]
  IC50: 0.1 to 100 nM
MRGPRX2 [2]
  IC50: 0.1 to 100 nM

## CC(C)(O)CNC1CCC(CNc2cc(C(F)(F)F)nc3cc(C(F)(F)F)nn23)(c2ccc(F)cc2)CC1 (stereo not shown) [Example 74, 1-((4-(((2,5-Bis(trifluoromethyl)pyrazolo[1,5-a]pyrimidin-7-yl)amino)methyl)-4-(4-fluorophenyl)cyclohexyl)amino)-2-methylpropan-2-ol]
MRGPRX2 [1]
  IC50: 0.1 to 100 nM
MRGPRX2 [2]
  IC50: 0.1 to 100 nM

## Cn1ccc(N2CC(CNc3cc(C(F)(F)F)nc4cc(C(F)(F)F)nn34)(c3ccc(F)cc3)C2)nc1=O [Example 90, 4-(3-(((2,5-Bis(trifluoromethyl)pyrazolo[1,5-a]pyrimidin-7-yl)amino)methyl)-3-(4-fluorophenyl)azetidin-1-yl)-1-methylpyrimidin-2(1H)-one]
MRGPRX2 [1]
  IC50: 0.1 to 100 nM
MRGPRX2 [2]
  IC50: 0.1 to 100 nM

## C[C@]1(O)C[C@H](NC(=O)N2CC(CNc3cc(C(F)(F)F)nc4cc(C(F)(F)F)nn34)(c3ccc(F)cc3)C2)C1 [Example 91, 3-(((2,5-Bis(trifluoromethyl)pyrazolo[1,5-a]pyrimidin-7-yl)amino)methyl)-3-(4-fluorophenyl)-N-((1r,3r)-3-hydroxy-3-methylcyclobutyl)azetidine-1-carboxamide]
MRGPRX2 [1]
  IC50: 0.1 to 100 nM
MRGPRX2 [2]
  IC50: 0.1 to 100 nM

## O=C(NC[C@H]1C[C@H](O)C1)N1CC(CNc2cc(C(F)(F)F)nc3cc(C(F)(F)F)nn23)(c2ccc(F)cc2)C1 [Example 92, 3-(((2,5-Bis(trifluoromethyl)pyrazolo[1,5-a]pyrimidin-7-yl)amino)methyl)-3-(4-fluorophenyl)-N-(((1r,3r)-3-hydroxycyclobutyl)methyl)azetidine-1-carboxamide]
MRGPRX2 [1]
  IC50: 0.1 to 100 nM
MRGPRX2 [2]
  IC50: 0.1 to 100 nM

## O=C(N[C@H]1CC[C@@H]1O)N1CC(CNc2cc(C(F)(F)F)nc3cc(C(F)(F)F)nn23)(c2ccc(F)cc2)C1 [Example 93, 3-(((2,5-Bis(trifluoromethyl)pyrazolo[1,5-a]pyrimidin-7-yl)amino)methyl)-3-(4-fluorophenyl)-N-((1S,2S)-2-hydroxycyclobutyl)azetidine-1-carboxamide]
MRGPRX2 [1]
  IC50: 0.1 to 100 nM
MRGPRX2 [2]
  IC50: 0.1 to 100 nM

## O=C(N[C@H]1CC[C@H](O)CC1)N1CC(CNc2cc(C(F)(F)F)nc3cc(C(F)F)nn23)(c2ccc(F)cc2)C1 [Example 98, 3-(((2-(Difluoromethyl)-5-(trifluoromethyl)pyrazolo[1,5-a]pyrimidin-7-yl)amino)methyl)-3-(4-fluorophenyl)-N-((1r,4r)-4-hydroxycyclohexyl)azetidine-1-carboxamide]
MRGPRX2 [1]
  IC50: 0.1 to 100 nM
MRGPRX2 [2]
  IC50: 0.1 to 100 nM

## O=C(N[C@H]1CC[C@H](O)CC1)N1CC(CNc2cc(C(F)(F)F)nc3cc(C(F)(F)F)nn23)(c2ccc(F)cn2)C1 [Example 99, 3-(((2,5-Bis(trifluoromethyl)pyrazolo[1,5-a]pyrimidin-7-yl)amino)methyl)-3-(5-fluoropyridin-2-yl)-N-((1r,4r)-4-hydroxycyclohexyl)azetidine-1-carboxamide]
MRGPRX2 [1]
  IC50: 0.1 to 100 nM
MRGPRX2 [2]
  IC50: 0.1 to 100 nM

## O=C(N[C@H]1CC[C@H](O)CC1)N1CC(CNc2cc(C(F)(F)F)nc3cc(C(F)(F)F)nn23)(c2ccc(F)c(F)c2)C1 [Example 100, 3-(((2,5-Bis(trifluoromethyl)pyrazolo[1,5-a]pyrimidin-7-yl)amino)methyl)-3-(3,4-difluorophenyl)-N-((1r,4r)-4-hydroxycyclohexyl)azetidine-1-carboxamide]
MRGPRX2 [1]
  IC50: 0.1 to 100 nM
MRGPRX2 [2]
  IC50: 0.1 to 100 nM

## [2H]C([2H])([2H])NC(=O)N1CC(CNc2cccc3nc(C(F)(F)F)cn23)(c2ccc(F)cc2)C1 [Example 101, 3-(4-Fluorophenyl)-N-(methyl-d3)-3-(((2-(trifluoromethyl)imidazo[1,2-a]pyridin-5-yl)amino)methyl)azetidine-1-carboxamide]
MRGPRX2 [1]
  IC50: 0.1 to 100 nM
MRGPRX2 [2]
  IC50: 0.1 to 100 nM
